Assays:
[1] = Average plasma concentration at steady state in mouse at 250 mg/kg administered bid; format: ADME, organism-based; conditions: in vivo
[2] = Solubility of compound at pH 1; format: physicochemical; conditions: buffer
[3] = Solubility of compound at pH 7.4; format: physicochemical; conditions: buffer
[4] = AUC (0 to 24 hrs) at steady state in […] at 1200 mg, BID; format: ADME; set-up: time < 24 hr, dose 1200 mg; conditions: in vivo
[5] = Cmax in female cynomolgus monkey at 225 mg/kg, po measured on day 1; format: ADME, organism-based, Macaca fascicularis; set-up: route oral, dose 225 mg/kg; conditions: in vivo
[6] = AUC (0 to 24 hrs) in female cynomolgus monkey at 15 mg/kg, iv measured on day 1; format: ADME, organism-based, Macaca fascicularis; set-up: time < 24 hr, route intravenous, dose 15 mg/kg; conditions: in vivo
[7] = Half life in female cynomolgus monkey at 15 mg/kg, iv measured on day 1; format: ADME, organism-based, Macaca fascicularis; conditions: in vivo
[8] = Apparent oral clearance in male cynomolgus monkey at 75 mg/kg, po measured on day 1; format: ADME, organism-based, Macaca fascicularis; conditions: in vivo
[9] = Apparent oral clearance in male cynomolgus monkey at 150 mg/kg, po BID measured on day 8; format: ADME, organism-based, Macaca fascicularis; conditions: in vivo
[10] = Half life in female cynomolgus monkey at 225 mg/kg, po measured on day 1; format: ADME, organism-based, Macaca fascicularis; conditions: in vivo
[11] = Half life in female cynomolgus monkey at 375 mg/kg, po BID measured on day 8; format: ADME, organism-based, Macaca fascicularis; conditions: in vivo
[12] = Change in normalised AUC (infinity) in rat at 50 mg/kg, po measured upto 72 hrs by LC-MS/MS analysis; format: ADME, organism-based; conditions: in vivo
[13] = Clearance in female cynomolgus monkey at 15 mg/kg, iv measured on day 1; format: ADME, organism-based, Macaca fascicularis; conditions: in vivo, time 1 day
[14] = Chemical stability of compound in PBS buffer assessed as compound remaining at pH 7.4 at 5 uM measured after 24 hrs by LC-MS/MS analysis; format: physicochemical; conditions: read-out: Stabilty
[15] = Chemical stability of compound in simulated intestinal fluid assessed as compound remaining at 5 uM measured after 3 hrs by LC-MS/MS analysis; format: ADME, physicochemical; conditions: read-out: Stabilty
[16] = Stability in mouse plasma assessed as parent compound remaining measured after 2 hrs by LC-MS/MS analysis; format: ADME, cell-free; conditions: read-out: Stabilty
[17] = Lipophilicity, logD of compound; format: physicochemical; conditions: octanol/water
[18] = Solubility in water; format: physicochemical
[19] = Drug metabolism in human hepatocytes assessed as unmetabolized compound at 10 uM incubated for 120 mins by UPLC-QTOF-PDA analysis; format: ADME, cell-based, Hepatocyte; conditions: read-out: Drug metabolism
Cytochrome P450 1A2 = biological target: T1, Cytochrome P450 1A2 (Homo sapiens, UniProt P05177); assay: Inhibition of CYP1A2 in human hepatocytes; format: ADME, cell-based, Hepatocyte
T1 sequence (P05177 whole entry): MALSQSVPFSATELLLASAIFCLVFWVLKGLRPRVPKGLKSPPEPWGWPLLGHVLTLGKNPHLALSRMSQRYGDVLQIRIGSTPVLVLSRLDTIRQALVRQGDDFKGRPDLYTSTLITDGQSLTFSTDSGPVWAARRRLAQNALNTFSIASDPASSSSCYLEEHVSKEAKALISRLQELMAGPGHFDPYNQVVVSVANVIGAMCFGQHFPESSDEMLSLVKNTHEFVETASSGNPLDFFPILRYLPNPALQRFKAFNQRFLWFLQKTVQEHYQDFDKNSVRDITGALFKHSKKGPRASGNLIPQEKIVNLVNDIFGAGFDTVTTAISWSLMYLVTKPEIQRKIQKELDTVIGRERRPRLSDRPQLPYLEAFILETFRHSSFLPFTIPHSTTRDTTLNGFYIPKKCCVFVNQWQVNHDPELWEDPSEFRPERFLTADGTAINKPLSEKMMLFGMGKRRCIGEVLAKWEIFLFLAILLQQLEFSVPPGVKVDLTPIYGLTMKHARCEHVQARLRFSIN

[20] = Inhibition of P-gp transporter activity in MDR1-MDCK2 cells; format: cell-based, Canis lupus familiaris; conditions: mdckii-mdr1
[21] = biological target: T2, Solute carrier organic anion transporter family member 1B3 (Homo sapiens, UniProt Q9NPD5); assay: Inhibition of OATP1B3 (unknown origin) expressed in HEK293 cells; format: cell-based
T2 sequence (Q9NPD5 whole entry): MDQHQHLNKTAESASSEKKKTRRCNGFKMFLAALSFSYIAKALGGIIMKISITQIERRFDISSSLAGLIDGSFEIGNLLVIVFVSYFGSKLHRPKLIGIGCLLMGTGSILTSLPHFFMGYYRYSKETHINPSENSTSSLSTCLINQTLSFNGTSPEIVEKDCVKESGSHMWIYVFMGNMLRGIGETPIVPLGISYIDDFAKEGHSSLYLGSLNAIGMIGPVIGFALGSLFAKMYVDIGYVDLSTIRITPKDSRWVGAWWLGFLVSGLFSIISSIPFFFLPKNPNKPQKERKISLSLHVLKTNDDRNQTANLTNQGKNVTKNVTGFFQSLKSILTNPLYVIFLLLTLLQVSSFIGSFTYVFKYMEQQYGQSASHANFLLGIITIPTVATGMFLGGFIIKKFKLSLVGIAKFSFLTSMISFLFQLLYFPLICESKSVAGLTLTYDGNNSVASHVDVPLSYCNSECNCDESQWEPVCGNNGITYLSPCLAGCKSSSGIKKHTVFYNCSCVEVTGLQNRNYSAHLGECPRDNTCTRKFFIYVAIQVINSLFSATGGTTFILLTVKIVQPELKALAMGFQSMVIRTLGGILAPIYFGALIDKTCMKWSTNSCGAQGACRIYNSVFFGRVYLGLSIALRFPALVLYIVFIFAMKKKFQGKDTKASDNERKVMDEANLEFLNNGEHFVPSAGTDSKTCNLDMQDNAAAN

OAT3 = OAT3 (Homo sapiens, UniProt Q8TCC7); assay: Inhibition of OAT3 (unknown origin) expressed in HEK293 cells; format: cell-based
[22] = AUC (0 to 24 hrs) in female cynomolgus monkey at 75 mg/kg, po BID measured on day 8; format: ADME, organism-based, Macaca fascicularis; set-up: time < 24 hr, route oral, dose 75 mg/kg; conditions: in vivo
[23] = Drug metabolism in cynomolgus monkey assessed as indoximod formation of by measuring indoximod Tmax at 15 mg/kg, iv administered as single dose; format: ADME, organism-based, Macaca fascicularis; conditions: in vivo
[24] = Drug metabolism in rats assessed as ratio of indoximod to parent compound at 20 to 900 mg/kg, po administered as single dose; format: ADME, organism-based; conditions: rat, in vivo, dose 20-900 mg/kg
[25] = AUC (0 to 12 hrs) in male rat at 150 mg/kg, po BID measured on day 28; format: ADME, organism-based; set-up: time < 12 hr, route oral, dose 150 mg/kg; conditions: in vivo
[26] = Oral bioavailability in male cynomolgus monkey at 75 mg/kg; format: ADME, organism-based, Macaca fascicularis; conditions: in vivo
[27] = Toxicity in po dosed male rat administered twice a day; format: organism-based; conditions: in vivo
[28] = Cmax in female rat at 180 mg/kg, po BID measured on day 28; format: ADME, organism-based; set-up: route oral, dose 180 mg/kg; conditions: in vivo
[29] = AUC (0 to 12 hrs) in female rat at 180 mg/kg, po BID measured on day 28; format: ADME, organism-based; set-up: time < 12 hr, route oral, dose 180 mg/kg; conditions: in vivo
[30] = Cmax in po BID dosed rat measured on day 28; format: ADME, organism-based; set-up: route oral, dose 180 mg/kg; conditions: in vivo, 180 mg/kg
[31] = Toxicity in monkey assessed as change in behavioral parameter; set-up: species or system Macaca mulatta; conditions: rhesus monkey, in vivo

Sequence of OAT3 (Q8TCC7 whole entry, looked up): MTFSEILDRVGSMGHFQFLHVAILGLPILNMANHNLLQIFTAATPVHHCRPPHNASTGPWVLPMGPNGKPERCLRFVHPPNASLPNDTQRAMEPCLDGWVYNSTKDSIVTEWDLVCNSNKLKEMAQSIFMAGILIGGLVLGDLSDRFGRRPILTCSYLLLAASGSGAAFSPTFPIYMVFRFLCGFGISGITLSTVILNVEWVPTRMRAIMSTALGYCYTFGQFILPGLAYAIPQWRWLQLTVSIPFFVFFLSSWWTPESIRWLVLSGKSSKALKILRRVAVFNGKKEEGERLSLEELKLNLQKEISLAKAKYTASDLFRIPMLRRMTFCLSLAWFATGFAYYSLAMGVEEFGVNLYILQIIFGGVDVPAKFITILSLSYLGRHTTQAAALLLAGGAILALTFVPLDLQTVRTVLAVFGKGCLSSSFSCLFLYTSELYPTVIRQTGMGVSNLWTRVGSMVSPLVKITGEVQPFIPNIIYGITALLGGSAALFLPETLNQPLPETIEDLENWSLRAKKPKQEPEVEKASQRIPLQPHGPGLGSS

For `Cn1cc(C[C@@H](N)C(=O)O)c2ccccc21` [INDOXIMOD], the Cave [1] was 29 µM, the solubility [2] was > 20 mg/mL and the solubility [3] was < 2 mg/mL. It also gave an AUC at 24 h [4] of 240 µM·h, a Cmax [5] of 68.5 µM and an AUC(0-t) at 24 h [6] of 70.6 µM·h. It also gave a half-life [7] of 1.5 h, a CL/F [8] of 16.2 mL/min/kg and a CL/F [9] of 13.8 mL/min/kg. The half-life [10] was 3.8 h, the half-life [11] was 3.8 h and the Activity [12] was 0%. It also gave a clearance [13] of 10.2 mL/min/kg.
`CCOC(=O)[C@@H](Cc1cn(C)c2ccccc12)NC(=O)[C@@H](N)CC(C)C.Cl` showed a remaining at 24 h, 5 µM [14] of 48%, a remaining at 3 h, 5 µM [15] of 91% and a remaining at 2 h [16] of 0%. The logD [17] was 2.3, the solubility [18] was 19.8 mg/mL and the remaining at 2 h, 10 µM [19] was 0.9%. For the same compound, the IC50 (Cytochrome P450 1A2) was > 50 µM, the IC50 [20] was 27 µM and the IC50 [21] was > 50 µM. For the same compound, the IC50 (OAT3) was > 50 µM, the AUC at 24 h [22] was 0.0356 µM·h and the Tmax [23] was 1 h. For the same compound, the Ratio [24] was > 39000, the AUC at 12 h [25] was 1410 µM·h and the bioavailability [26] was 61.8%. It also gave a TD10 [27] of 150 mg/kg, a Cmax [28] of 170 µM and an AUC at 12 h [29] of 1380 µM·h. For the same compound, the Cmax [30] was 110 µM and the Activity [31] was “Non-Toxic”.
